Consider three molecules from ChEMBL document CHEMBL1137661, “Interaction study of the combined use of paroxetine and fosamprenavir-ritonavir in healthy subjects” (Antimicrob Agents Chemother, 2007).

Each structure is given as a SMILES string.

A word on the AUC: it is concentration integrated over time. In general, Cmax refers to the peak of the concentration-time curve. A word on the half-life: it is the time in which the quantity being followed falls by half. In general, CL/F refers to clearance divided by bioavailability, as obtained after extravascular dosing.

Data set [1] relates to Homo sapiens. The experiment in a line: AUC (0 to 12 hrs) in human assessed as amprenavir levels at 700 mg, po bid for 10 days pretreated with paroxetin at 20 mg, po qd for 10 days followed by 16 days washout period then coadministered with paroxetin at 20 mg, po qd and ritonavir at 100 mg, po bid for 10 days. In kind it is ADME, organism-based, Plasma. Also noted: time < 12 hr, dose 700 mg, route oral. Particulars: in vivo.

In data set [2] the test system is Homo sapiens. The experiment in a line: Half life in human assessed as amprenavir levels at 700 mg, po bid for 10 days pretreated with paroxetin at 20 mg, po qd for 10 days followed by 16 days washout period then coadministered with paroxetin at 20 mg, po qd and ritonavir at 100 mg, po bid for 10 days. The format is ADME, organism-based. Particulars: in vivo.
A short description of data set [3]: AUC (0 to 24 hrs) in human at 20 mg, po qd for 10 days. The format is ADME, organism-based. Also noted: time < 24 hr, dose 20 mg, route oral. Particulars: plasma.
Data set [4] in a line: Cmax in human at 20 mg, po qd for 10 days. Particulars: in vivo. Also on record: dose 20 mg, route oral. In kind it is ADME, organism-based.
Data set [5] in a line: Half life in human at 20 mg, po qd for 10 days. In kind it is ADME, organism-based. The conditions noted are these: in vivo.
The nature of data set [6]: Apparent oral clearance in human at 20 mg, po qd for 10 days. The conditions noted are these: in vivo. The format is ADME, organism-based.
Data set [7] is described as follows: AUC (0 to 24 hrs) in human at 20 mg, po qd for 10 days followed by 16 days washout period and treated with 20 mg, po qd for 10 days coadministered with fosamprenavir at 700 mg, po bid and ritonavir at 100 mg, po bid. In kind it is ADME, organism-based. Also noted: dose 20 mg, time < 24 hr, route oral. Particulars: plasma.
The nature of data set [8]: Cmax in human at 20 mg, po qd for 10 days followed by 16 days washout period and treated with 20 mg, po qd for 10 days coadministered with fosamprenavir at 700 mg, po bid and ritonavir at 100 mg, po bid. The format is ADME, organism-based. The conditions noted are these: in vivo. Also noted: dose 20 mg, route oral.
Data set [9] in a line: Half life in human at 20 mg, po qd for 10 days followed by 16 days washout period and treated with 20 mg, po qd for 10 days coadministered with fosamprenavir at 700 mg, po bid and ritonavir at 100 mg, po bid. In kind it is ADME, organism-based. The conditions noted are these: in vivo.
The subject of data set [10] is Homo sapiens. The experiment in a line: Decrease in serotonin concentration in human platelets at 20 mg, po qd for 10 days relative to control. In kind it is functional. Also noted: scale not given: the % may be the effect or the level left.
In data set [11] the test system is Homo sapiens. The experiment in a line: Decrease in serotonin concentration in human platelets at 20 mg, po qd for 10 days followed by 16 days washout period and treated with 20 mg, po qd for 10 days coadministered with fosamprenavir at 700 mg, po bid and ritonavir at 100 mg, po bid relative to control. Also noted: scale not given: the % may be the effect or the level left. The format is functional.

The test system of data set [12] is Homo sapiens. The experiment in a line: Toxicity in human assessed as serious adverse events at 20 mg, po qd for 10 days. The conditions noted are these: in vivo, 240 h. The format is organism-based.
Data set [13] relates to Homo sapiens. The experiment in a line: Toxicity in human assessed as serious adverse events at 20 mg, po qd for 10 days followed by 16 days washout period and treated with 20 mg, po qd for 10 days coadministered with fosamprenavir at 700 mg, po bid and ritonavir at 100 mg, po bid. The format is organism-based. The conditions noted are these: in vivo.
A short description of data set [14]: Apparent volume of distribution in human. The conditions noted are these: in vivo, read-out: Vz. In kind it is ADME, organism-based.
Data set [15] can be described thus: AUC (0 to 12 hrs) in human at 100 mg, po bid for 10 days pretreated with paroxetin at 20 mg, po qd for 10 days followed by 16 days washout period then coadministered with paroxetin at 20 mg, po qd and fosamprenavir at 700 mg, po bid for 10 days. The format is ADME, organism-based. Also noted: time < 12 hr, dose 100 mg, route oral. The conditions noted are these: plasma.

Data set [16] is described as follows: clinical. The conditions noted are these: human, in vivo, po.
Description: Half life in human at 100 mg, po bid for 10 days pretreated with paroxetin at 20 mg, po qd for 10 days followed by 16 days washout period then coadministered with paroxetin at 20 mg, po qd and fosamprenavir at 700 mg, po bid for 10 days

For `CC(C)CN(C[C@@H](O)[C@H](Cc1ccccc1)NC(=O)O[C@H]1CCOC1)S(=O)(=O)c1ccc(N)cc1` [AMPRENAVIR], the exposure (AUC) in [1] is 44100 ng·h/mL. Moreover, the t1/2 in data set [2] was 11.5 h.
In the case of `Fc1ccc([C@@H]2CCNC[C@H]2COc2ccc3c(c2)OCO3)cc1` [PAROXETINE], the results for the AUC at 24 h in [3] and in data set [7] were 590 ng·h/mL and 270 ng·h/mL, respectively. For the same molecule, the Cmax in [4] is 34 ng/mL; in data set [8], 17 ng/mL. Also, the half-life is 21.1 h in data set [5] and 15.9 h in data set [9]. In data set [6], the CL/F is 552 mL/min. Also, the Activity is reported as 87% in data set [10], 81% in [11], “Non-toxic” in [12] and “Non-toxic” in [13]. Moreover, the Vd in [14] stood at 8.7 L/kg.
With `CC(C)c1nc(CN(C)C(=O)N[C@H](C(=O)N[C@@H](Cc2ccccc2)C[C@H](O)[C@H](Cc2ccccc2)NC(=O)OCc2cncs2)C(C)C)cs1` [RITONAVIR], the AUC at 12 h in [15] was determined as 5100 ng·h/mL. This molecule also gave a half-life in data set [16] of 4.1 h.
